“Also recorded” adds a separate entry of the source.
Experiments:
rat basilar arteries = assay: 48 h organ culture of basilar artery, VDCC independent contraction (Ca2+ curve after ET-1 precontraction with nimodipine); type: cell-based; settings: 1 μM inhibitor, 48 h OC, 10^-7 M nimodipine
Procedure: (§1) Rats were sedated with O2/CO2 (30/70%) and sacrificed by decapitation. Brains were gently removed and chilled in a cold oxygenated buffer solution of the following composition: 119 mM NaCl, 4.6 mM KCl, 1.5 mM CaCl2, 1.2 mM MgCl2, 1.2 mM NaH2PO4, 15 mM NaHCO3 and 5.5 mM Glucose; pH 7.4. The basilar artery (BA) was carefully dissected from the brain in a physiological buffer solution followed by either OC (naïve animals) or directly mounted in a wire myograph (arteries from rats which has undergone surgical procedures). Segments were incubated for 48 hours at 37° C. in humidified 5% CO2/O2 in DMEM supplemented with streptomycin and penicillin with inhibitors or vehicle (DMSO). Culture media was changed after 24 hours.
The segments were equilibrated in physiological buffer aerated with 95% O2/5% CO2, pH of 7.4, temperature set at 37° C. and the wires were separated for isometric pretension at 2 Nm^−1. The arterial segments were exposed two or three times with 60 mM K^+, by exchanging the buffer with a 60 mM K^+ buffer solution. To maintain equal osmolarity, a proportional amount of Na^+ had been removed from the buffer. An absolute cut-off was set at 2.0 mN K^+max for inclusion of arterial segments from rats that underwent the surgical procedure. Endothelium function was evaluated with the addition of 5-HT (3.10^−7 M) followed by carbachol (10^−5 M). […]

[1] = test system: rat basilar arteries (contractile ETB receptors); assay: 48 h organ culture of basilar artery, S6c (ETB agonist)-induced contraction in wire myograph; type: cell-based
Procedure: as §1
For contractility measurements, both incubated BAs (ex vivo) and BAs after surgical procedure (in vivo) were cut into segments and mounted on a pair of metal wires (40 μm) in a myograph bath. The arteries from OC were mounted the same way after 48 hours in media. One wire was attached to a micro-meter screw which allows for fine adjustments of the distance between the wires, controlling the vascular tone.
The segments were equilibrated in physiological buffer aerated with 95% O2/5% CO2, pH of 7.4, temperature set at 37° C. and the wires were separated for isometric pretension at 2 Nm^−1. The arterial segments were exposed two or three times with 60 mM K^+, by exchanging the buffer with a 60 mM K^+ buffer solution. To maintain equal osmolarity, a proportional amount of Na^+ had been removed from the buffer. An absolute cut-off was set at 2.0 mN K^+max for inclusion of arterial segments from rats that underwent the surgical procedure. Endothelium function was evaluated with the addition of 5-HT (3.10^−7 M) followed by carbachol (10^−5 M). For arteries from the OC the protocol was as followed: first a cumulative concentration-response curve to sarafotoxin 6C (S6c, 10^−14-10^−7 M), followed by a concentration-response curve to endothelin-1 (ET-1, 10^−14-10^−7 M). At peak ET-1 (10^−7 M), the buffer was changed to a Ca^2+-free buffer containing 10^−7 M ET-1 and nimodipine (L-type of voltage dependent Ca^2+ channel entry blocker, 10^−7 M). A concentration-response curve to Ca^2+ (0.0125-3 mM) was then performed. When vasodilation was investigated arteries was precontracted with U46619 (1.10^−7-3.10^−7 M) or K^+ (41 mM) and cumulative concentration-response curves was performed by adding calcitonin gene-related peptide (CGRP, 10^−12-10^−7 M), carbachol (10^−10-10^−5 M) or SNP (10^−11-10^−4 M).
Contractile responses of each segment were adjusted according to the length of the artery and are expressed as mN/mm (Nm^−1). […] To compare ET-1 sensitivity, arteries were normalized to the percentage of the individual vessel ET-1max. When the artery reached maximum contraction before the last concentration was added, the curves were constrained to the max contraction. The relative log IC50/log EC50 is the concentration corresponding to a response midway between the estimates of the lower and upper plateaus. The Emax is the maximal contraction in the concentration response curve and ET-1max is the maximal contraction to ET-1. All quantitative data is presented as mean±standard error of the mean (SEM), unless otherwise stated.

[2] = test system: rat subarachnoid hemorrhage model; assay: In vivo SAH, intraperitoneal trametinib, ET-1 concentration-response in BAs (Example 11)
Procedure: Thirty-two rats were operated for this study. Animals were treated intraperitoneally with 250 μl/body weight of a 1 mM solution of trametinib (Selleckchem), yielding a final dose of 95 μg/body weight, diluted in 10% cremophor and 10% PEG400 in NaCl. Animals in the vehicle and sham group were treated with 250 μl/body weight 10% cremophor and 10% PEG400 in NaCl. Treatment was intraperitoneally administered either at 1 h and 24 h or 6 h and 24 h post surgery. Animals were terminated 48 h after surgery by CO2 anesthesia and decapitation.

[3] = test system: rat subarachnoid haemorrhage model; assay: Rotating pole test after SAH, intraperitoneal treatment; type: in vivo; settings: SAH + i.p. treatment, 48 hours post-SAH
Procedure: Gross sensorimotor function was evaluated using a rotating pole test, including a baseline evaluation on the day before induction of SAH. Briefly, movement across a 10-rpm rotating pole (45 mm diameter, 150 cm length) was evaluated with a cage at the end that contain the rat's own bedding material (“smells like home”). Rat performance was scored according to the following definitions: Low, the animal is unable to cross the pole without falling off; High, the animal can traverse the entire pole without falling off. All animals were trained to traverse the pole before surgery. Pre-SAH and on day 1 and 2 after surgery, each animal was scored twice for left and right rotation respectively, i.e. 4 counts per animal. Animals were graded by personnel blinded to the experimental groups of the animals. Data are shown percentage as % high score count/total score count.
For the intraperitoneal treatment (i.p) the compound was dissolved in 10% cremophor EL (Kolliphor EL) and 10% PEG400 in NaCl, which also served as vehicle. The total dose was administered as two treatments (6 hours and 24 hours). Animals were given 2.5 ml isotonic saline s.c. to avoid dehydration, immediately after surgery and in conjunction with the treatments.

## CC(=O)Nc1cccc(-n2c(=O)n(C3CC3)c(=O)c3c(Nc4ccc(I)cc4F)n(C)c(=O)c(C)c32)c1 [trametinib]
Rat basilar arteries
  VDCC independent contraction: significantly prevented
[1]; 1 μM inhibitor, 48 h organ culture, S6c contraction relative to 60 mM K+
  inhibition of S6c-induced contraction (initial screening groups): Highly effective; also recorded: almost completely inhibited
[1]; Rattus norvegicus, 48 h organ culture, inhibition of S6c-induced contraction, read-out: pIC50 (based on the Emax for S6c) (converted)
  IC50: 20.9 nM
[1]; at predicted CSF concentration of approximately 10^-7 M
  estimated inhibitor effect in the ex vivo OC study: ~75%
[2]; i.p. 1 mM at 1 and 24 h post-SAH
  increased ET-1-induced concentration-response curve in BAs after SAH: significantly inhibited
[2]; i.p. 1 mM at 6 and 24 h post-SAH
  increased ET-1-induced concentration-response curve in BAs after SAH: significantly inhibited
[3]
  rotating pole Score48 h (% high score count/total score count): 100%
